From patent publication US8389535B2, “L-methylfolate treatment for psychiatric or neurologic disorders” (priority 2010, dated 2013)

Columns and labels:
[1] = cited from earlier work
[2] = tested on: patients with an autism spectrum disorder or an attention deficit disorder
Description: The patient is dosed with L-methylfolate orally once a day according to preparations available. The patient takes the medication at the same time of day and with a snack or meal. The patient is initially dosed with L-methylfolate according to weight as follows: • 25-45 lbs (11-20 kg): 2.5 mg • 46-60 lbs (21-27 kg): 5 mg • 61-90 lbs (28-41 kg): 7.5 mg • 91+ lbs (42+kg): 7.5-15 mg Dose Modifications and Duration of Therapy
L-methylfolate is administered in doses and forms appropriate for age. L-methylfolate is titrated upward as indicated by behavior improvement according to the results from the screens. Titration may occur from week 1 through 30 days as indicated by the physician. From 30 days to 90 days, the achieved dose at 30 days is maintained until 90 days to observe for tolerance to drug, side effects. During this time, if the child is not weaned from stimulant medications, attempts are made to lower the stimulant as tolerated and discontinue stimulants if at all possible.
In implementing therapy the first consideration is the presence of clinical signs consistent with previous or current diagnosis of an autism spectrum disorder or an attention deficit disorder. […] The established diagnosis was not a sole indicator for therapy.
Second, a review of the family history is necessary. […] Parents were questioned about the presence of ADHD or autism spectrum disorders in the immediate family or extended family. Of particular interest was the presence of other neuropsychiatric conditions, such as depression, anxiety, and bipolar disorder. Parents also were queried regarding the presence of heart disease, difficulties with pregnancy due infertility or miscarriages, leukemia, gastric and colon cancers, breast cancer and stroke. In elderly members of the family, the occurrence of dementia, Alzheimer's, and Parkinson's was also discussed. The above diseases have also been associated to varying degrees with the methylenetetrahydrofolate reductase defect.
Third, blood samples were collected and evaluated. The laboratory exams completed on the blood samples were: a complete blood count with differential, serum folate, serum B12, and serum homocysteine. The tests were performed to establish a baseline for red cell morphology while evaluating for any pre-existing pathologies related to anemia, leukemia, or other blood dycrasias. Serum folate and B12 have been implicated in certain pathologies of the red blood cell and are critical components in folate metabolism. Vitamin B12 in the range of 400 pg/ml or less has been associated with neuropsychiatric sequelae in 5-10% of population. (Quest Labs) Finally, elevated homocysteine levels in the serum have been associated with various disease states, particularly in the presence of the methylenetetrahydrofolate reductase gene polymorphisms. […] However, a few researchers have been able to evaluate severely compromised children.
Fourth, serum was evaluated for the presence of methylenetetrahydrofolate reductase polymorphisms as a predictor of condition severity and response to therapy. Given the expense of these analyses, it was decided to delay evaluation of the serum for the polymorphisms until a clinic response was determined.
In a preliminary trial, nineteen patients, ages 4-43 years, (3 female, 16 male) were randomly selected over the course of three months. Patients were permitted to remain on current medication or supplemental, i.e., fish oil and vitamins, therapies at parental request.

CP-450 system = details: cited from earlier work
[3] = via the kidneys; cited from earlier work
[4] = as a medical food or other suitable formulation; cited from earlier work
[5] = of the 14 patients, parental report

SMILES | side effect, anecdotal report ([1]; one patient, dose increased to 1 mg/kg/d) | response to therapy as indicated by parents' correspondence and office visits ([2]; 14 remaining of 19 patients, ages 4-43 years, oral once daily, dose by weight 2.5-15 mg, more stable mood, increased attentiveness, improved sleep hygiene) | patients with intermediate responses [2, 5] | patients with significant improvements [2, 5] | side effects ([2]; preliminary experience) | time course of initial improvement ([2]; preliminary trial) | clinical response in patients negative for MTHFR gene polymorphisms ([2]; two children, parental reports) | response in patients positive for MTHFR gene polymorphisms ([2]; two of four patients with MTHFR analyses) | allergic reactions ([1]; oral use) | effect on CP-450 system (CP-450 system) | excretion [3] | blood brain barrier crossing [4]
Nc1nc(=O)c2c([nH]1)NCC(CNc1ccc(C(=O)N[C@@H](CCC(=O)O)C(=O)O)cc1)N2C=O (mixture of isomers) [folinic acid] | worsening of behavior symptoms |  |  |  |  |  |  |  |  |  |  | 
CN1c2c(nc(N)[nH]c2=O)NC[C@@H]1CNc1ccc(C(=O)N[C@@H](CCC(=O)O)C(=O)O)cc1 [L-methylfolate, 6(S)-5-methyltetrahydrofolate] |  | all have had a response to therapy | two | 12 | No side effects have been reported | 3-5 days, two weeks, or 4-6 weeks | responding clinically | positive response to therapy | Allergic reactions have been documented | does not affect CP-450 system | rapidly excreted via the kidneys | crosses the blood brain barrier
